What was measured:
human TRPA1 ion channel = human TRPA1 ion channel (Homo sapiens (Human), UniProt O75762); experiment: Assay A: TRPA1 cell assay (FLIPR, AITC-induced intracellular calcium); assay type: cell-based; conditions: HEK293 cells over-expressing human TRPA1; AITC 10 μM agonist; FLIPRtetra; read-out: hTRPA1 IC50
Method: A human HEK293 cell line over-expressing the human TRPA1 ion channel (Perkin Elmer, Product No. AX-004-PCL) was used as a test system for compound efficacy and potency.
Compound activity was determined by measuring the effect of compounds on intracellular calcium concentration induced by AITC (Allylisothiocyanat) agonism in a FLIPRtetra system (Molecular Devices).
The cells were obtained as frozen cells in cryo-vials and stored until use at −150° C. Cells were grown in culture medium (MEM/EBSS medium with 10% FCS and 0.4 mg/ML Geneticin). […] For sub-culturing cells were detached from flasks by Versene. At the day before the assay, cells were detached, washed twice with medium (MEM/EBSS medium with 10% FCS) and 20000 cells in 20 μl/well were seeded to Poly D-Lysin biocoated 384-well plates (black, clear bottom, Cat.356697) from Corning. Plates were incubated for 24 hours at 37° C./5% CO2 before use in the assay.
The test compounds were dissolved in 100% DMSO at a concentration of 10 mM and in a first step diluted in DMSO to a concentration of 5 mM, followed by serial dilution steps in 100% DMSO. Dilution factor and number of dilution steps may vary according to needs. Typically 8 different concentrations by 1:5 dilutions were prepared, further intermediate dilutions (1:20) of the substances were carried out with HBSS/HEPES buffer (1×HEPES,Cat.14065 from Gibco, 20 mM HEPES, Cat. 83264 from SIGMA, 0.1% BSA Cat.11926 from Invitrogen, pH 7,4
At the assay day cells were washed 3× with assay puffer, 20 μL buffer remained in the wells after washing. 10 μL Ca6 kit (Cat.R8191 MolecularDevices) loading buffer in HBSS/HEPES was added to the cells and the plates were incubated with lid for 120 minutes at 37°/5% CO2. 10 μL of compound or controls in HBSS/HEPES buffer/5% DMSO from the intermediate dilution plate were carefully added to the wells. […] Finally 10 μL of the agonist AITC 50 μM dissolved in HBSS/HEPES buffer/0,05% DMSO (final concentration 10 μM) was added to the wells followed by an additional read on the FLIPRtetra device for 10 minutes. The area under the signal curve (AUC) after AITC addition was used for IC50/% inhibition calculations
Data Evaluation and Calculation:
Each assay microtiter plate contained wells with vehicle (1% DMSO) controls instead of compound as controls for AITC induced luminescence (100% CTL; high controls) and wells with vehicle controls without AITC as controls for non-specific changes in luminescence (0% CTL; low controls).
The analysis of the data was performed by the calculation of the area under signal curve of the individual wells. Based on this values the % value for the measurement of each substance concentration was calculated (AUC(sample)−AUC(low))*100/(AUC(high)−AUC(low)) using MegaLab software (in house development). The IC50 values were calculated from the % control values using MegaLab software. Calculation: [y=(a−d)/(1+(x/c){circle around ( )}b)+d], a=low value, d=high value; x=conc M; c=IC50 M; b=hill; y=ctrl

[1] = Assay B: Microsomal clearance; assay type: in vitro ADME, human; conditions: pooled liver microsomes, 1 μM test compound, 37° C., NADPH
Method: Assay B: Microsomal Clearance:
The metabolic degradation of the test compound is assayed at 37° C. with pooled liver microsomes. The final incubation volume of 100 μl per time point contains TRIS buffer pH 7.6 at RT (0.1 M), magnesium chloride (5 mM), microsomal protein (1 mg/ml) and the test compound at a final concentration of 1 μM.
Following a short preincubation period at 37° C., the reactions are initiated by addition of beta-nicotinamide adenine dinucleotide phosphate, reduced form (NADPH, 1 mM) and terminated by transferring an aliquot into solvent after different time points (0, 5, 15, 30, 60 min). Additionally, the NADPH-independent degradation is monitored in incubations without NADPH, terminated at the last time point. The [%] remaining test compound after NADPH independent incubation is reflected by the parameter c(control) (metabolic stability). The quenched incubations are pelleted by centrifugation (10000 g, 5 min).
An aliquot of the supernatant is assayed by LC-MS/MS for the amount of parent compound. The half-life (t½ INVITRO) is determined by the slope of the semilogarithmic plot of the concentration-time profile.
The intrinsic clearance (CL_[…]) is calculated by considering the amount of protein in the incubation:
CL_[…] [μl/min/mg protein]=(Ln 2/(half-life [min]*protein content [mg/ml]))*1000
CL_[…]_INVIVO [ml/min/kg]=(CL_[…] [μL/min/mg protein]×MPPGL [mg protein/g liver]×liver factor [g/kg bodyweight])/1000

[2] = Assay C: Hepatocyte clearance; assay type: in vitro ADME, human; conditions: cryopreserved hepatocyte suspension, incubated six hours
Method: Assay C: Hepatocyte Clearance
The metabolic degradation of the test compound is assayed in a hepatocyte suspension. Hepatocytes (cryopreserved) are incubated in. Dulbecco's modified eagle medium (supplemented with 3.5 μg glucagon/500 mL, 2.5 mg insulin/500 mL and 3.75 mg/500 mL hydrocortison) containing 5% or 50% species serum.
Following a 30 min preincubation in an incubator (37° C., 10% CO2) 5 μl of test compound solution (80 μM; from 2 mM in DMSO stock solution diluted 1:25 with medium) are added into 395 μl hepatocyte suspension (cell density in the range 0.25-5 Mio cells/mL depending on the species, typically 1 Mio cells/mL; final concentration of test compound final DMSO concentration 0.05%).
The cells are incubated for six hours (incubator, orbital shaker) and samples (25 μl) are taken at 0, 0.5, 1, 2, 4 and 6 hours. Samples are transferred into acetonitrile and pelleted by centrifugation (5 min). The supernatant is transferred to a new 96-deepwell plate, evaporated under nitrogen and resuspended.
Decline of Parent Compound is Analyzed by HPLC-MS/MS
CLint is calculated as follows CL_[…]=Dose/AUC=(C0/CD)/(AUD+clast/k)×1000/60. C0: initial concentration in the incubation [μM], CD: cell density of vital cells [10e6cells/mL], AUD: area under the data [μM×h], clast: concentration of last data point [μM], k: slope of the regression line for parent decline [h−1].
The calculated in vitro hepatic intrinsic clearance can be scaled up to the intrinsic in vivo hepatic Clearance and used to predict hepatic in vivo blood clearance (CL) by the use of a liver model (well stirred model).
CL_[…]_INVIVO [ml/min/kg]=(CL_[…] [μL/min/10e6cells]×hepatocellularity[10e6cells/g liver]×liver factor [g/kg bodyweight])/1000
CL [ml/min/kg]=CL_[…]_INVIVO [ml/min/kg]×hepatic blood flow [ml/min/kg]/(CL_[…]_INVIVO [ml/min/kg]+hepatic blood flow [ml/min/kg])

[3] = Assay D: Metabolism in human hepatocytes in vitro; assay type: in vitro ADME; conditions: primary human hepatocytes, 10 μM test compound, up to six hours
Method: Assay D: Metabolism in Human Hepatocytes In Vitro
The metabolic pathway of a test compound is investigated using primary human hepatocytes in suspension.
Following a 30 min preincubation in a cell culture incubator (37° C., 10% CO2), test compound solution is spiked into the hepatocyte suspension to obtain a final cell density of 1.0*10^6 to 4.0*10^6 cells/ml (depending on the metabolic turnover rate of the compound observed with primary human hepatocytes), a final test compound concentration of 10 μM, and a final DMSO concentration of 0.05%.
The cells are incubated for six hours in a cell culture incubator on a horizontal shaker, and samples are removed from the incubation after 0, 0.5, 1, 2, 4 or 6 hours, depending on the metabolic turnover rate. Samples are quenched with acetonitrile and pelleted by centrifugation. The supernatant is transferred to a 96-deepwell plate, evaporated under nitrogen and resuspended prior to bioanalysis by liquid chromatography-high resolution mass spectrometry for identification of putative metabolites.

Chain of human TRPA1 ion channel (O75762 whole entry): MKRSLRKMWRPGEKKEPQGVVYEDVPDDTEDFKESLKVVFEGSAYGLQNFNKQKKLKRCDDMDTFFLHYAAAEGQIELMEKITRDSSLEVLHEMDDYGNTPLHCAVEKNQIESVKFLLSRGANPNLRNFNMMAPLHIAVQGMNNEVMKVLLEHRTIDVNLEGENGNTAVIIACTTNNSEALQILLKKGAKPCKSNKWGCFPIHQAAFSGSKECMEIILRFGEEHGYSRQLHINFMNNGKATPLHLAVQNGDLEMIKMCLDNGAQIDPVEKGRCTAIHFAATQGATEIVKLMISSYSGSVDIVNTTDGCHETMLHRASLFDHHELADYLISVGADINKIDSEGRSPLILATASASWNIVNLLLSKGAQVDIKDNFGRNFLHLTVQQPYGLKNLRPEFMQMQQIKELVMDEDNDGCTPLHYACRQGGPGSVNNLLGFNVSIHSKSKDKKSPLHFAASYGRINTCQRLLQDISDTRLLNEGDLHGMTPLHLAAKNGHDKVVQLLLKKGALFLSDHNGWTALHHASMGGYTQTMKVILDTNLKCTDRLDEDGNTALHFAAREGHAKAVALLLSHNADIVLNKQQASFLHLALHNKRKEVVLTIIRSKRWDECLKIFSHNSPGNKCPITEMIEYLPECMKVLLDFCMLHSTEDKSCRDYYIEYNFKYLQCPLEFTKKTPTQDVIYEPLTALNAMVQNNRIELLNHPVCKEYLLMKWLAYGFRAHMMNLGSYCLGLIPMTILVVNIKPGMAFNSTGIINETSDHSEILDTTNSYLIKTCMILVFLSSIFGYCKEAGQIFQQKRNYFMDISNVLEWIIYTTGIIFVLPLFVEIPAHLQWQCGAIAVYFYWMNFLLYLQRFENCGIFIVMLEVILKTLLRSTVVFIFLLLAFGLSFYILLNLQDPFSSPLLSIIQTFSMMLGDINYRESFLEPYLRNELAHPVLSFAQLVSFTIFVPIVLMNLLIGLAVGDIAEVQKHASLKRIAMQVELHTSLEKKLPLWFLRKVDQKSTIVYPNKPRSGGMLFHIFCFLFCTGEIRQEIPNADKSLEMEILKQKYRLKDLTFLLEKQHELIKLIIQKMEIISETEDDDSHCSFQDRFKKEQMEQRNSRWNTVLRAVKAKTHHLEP

Row | IC50 (human TRPA1 ion channel) | human LM [% Qh] [1] | human Hepatocytes [% Qh] [2] | Major metabolite observed: mechanism (Metabolite M1) [3] | SMILES
1 | 288 nM |  |  |  | Cn1cnc2nc(N)n(Cc3nnn(C[C@H](O)c4ccc(Cl)cc4)n3)c(=O)c21 [Example 2]
2 | 27 nM | <23 % Qh | 31 % Qh | N-Demethylation | Cc1nn(C)c2ncn(Cc3nnn(C[C@H](O)c4ccc(Cl)cc4)n3)c(=O)c12 [Example 5]
3 | 75 nM | >89 % Qh |  |  | Cc1ccn2ncn(Cc3nnn(C[C@H](O)c4ccc(Cl)cc4)n3)c(=O)c12 [Example 3]
4 | 275 nM | <23 % Qh |  |  | Cn1cnc2cnn(Cc3nnn(C[C@H](O)c4ccc(Cl)cc4)n3)c(=O)c21 [Example 7]
5 | 197 nM | <23 % Qh |  |  | O=c1c2scnc2ncn1Cc1nnn(C[C@H](O)c2ccc(Cl)cc2)n1 [Example 4]
6 | 72 nM | <23 % Qh | <4 % Qh |  | Cn1cnc2ncn(Cc3nnn(C[C@H](O)c4ccc(Cl)cc4)n3)c(=O)c21 [Example 9, 1-({2-[(2R)-2-(4-chlorophenyl)-2-hydroxyethyl]-2H-1,2,3,4-tetrazol-5-yl}methyl)-7-methyl-6,7-dihydro-1H-purin-6-one]
7 | 27 nM | <23 % Qh | 22 % Qh |  | Cc1ncn2ncn(Cc3nnn(C[C@H](O)c4ccc(Cl)cc4)n3)c(=O)c12 [Example 8]
8 | 35 nM | <23 % Qh | <4 % Qh |  | Cn1nnc2ncn(Cc3nnn(C[C@H](O)c4ccc(Cl)cc4)n3)c(=O)c21 [Example 1]
